Measured values as given in patent US7138410B2, “Aza-bicyclic N-biarylamides with affinity for the α7 nicotinic acetylcholine receptor” (Bayer HealthCare AG, priority 2002, dated 2006).
Structures can show the parent of a compound that is named as a salt.

Biological target: T1, α7 nAChR (Rattus norvegicus, UniProt Q05941)
T1 construct: Rat brain tissue (hippocampus or whole brain) is homogenized in homogenization buffer; from tissue; host or cells: rat brain (hippocampus or whole brain), P2 membrane fraction
T1 sequence (Q05941 23-502): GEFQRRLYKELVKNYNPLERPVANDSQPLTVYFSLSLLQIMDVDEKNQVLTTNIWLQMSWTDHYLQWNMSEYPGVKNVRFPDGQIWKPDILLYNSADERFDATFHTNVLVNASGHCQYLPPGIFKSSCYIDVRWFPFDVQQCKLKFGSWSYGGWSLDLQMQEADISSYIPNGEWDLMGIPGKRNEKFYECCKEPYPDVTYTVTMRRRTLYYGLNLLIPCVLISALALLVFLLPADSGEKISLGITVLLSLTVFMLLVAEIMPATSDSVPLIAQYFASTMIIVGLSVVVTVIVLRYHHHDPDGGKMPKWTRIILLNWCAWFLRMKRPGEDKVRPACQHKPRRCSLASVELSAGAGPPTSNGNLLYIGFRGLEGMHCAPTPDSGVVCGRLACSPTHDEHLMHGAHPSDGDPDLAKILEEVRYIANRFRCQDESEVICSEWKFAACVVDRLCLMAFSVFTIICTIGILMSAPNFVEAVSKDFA
Test: Affinity for α7 nAChR by inhibition of [3H]-methyllycaconitine binding to rat brain membranes
Details: not given
Method: 1. Determination of the Affinity of Test Substances for α7 nAChR by Inhibition of [^3H]-methyllycaconitine Binding to Rat Brain Membranes
The [^3H]-methyllycaconitine binding assay is a modification of the method described by Davies et al. (Neuropharmacol. 1999, 38, 679–690).
Rat brain tissue (hippocampus or whole brain) is homogenized in homogenization buffer (10% w/v, 0.32 M sucrose, 1 mM EDTA, 0.1 mM phenylmethylsulfonyl fluoride (PMSF), 0.01% (w/v) NaN3, pH 7.4, 4° C.) at 600 rpm in a glass homogenizer. The homogenate is centrifuged (1000×g, 4° C., 10 min) and the supernatant is removed. The pellet is resuspended (20% w/v) and the suspension is centrifuged (1000×g, 4° C., 10 min). The two supernatants are combined and centrifuged (15 000×g, 4° C., 30 min). The pellet obtained in this way is referred to as the P2 fraction.
The P2 pellet is washed twice with binding buffer (50 mM Tris-HCl, 1 mM MgCl2, 120 mM NaCl, 5 mM KCl, 2 mM CaCl2, pH 7.4), and centrifuged (15 000×g, 4° C., 30 min).
The P2 membranes are resuspended in binding buffer and incubated in a volume of 250 μl (amount of membrane protein 0.1–0.5 mg) in the presence of 1–5 nM [^3H]-methyllycaconitine, 0.1% (w/v) BSA (bovine serum albumin) and various concentrations of the test substance at 21° C. for 2.5 h. The nonspecific binding is determined by incubation in the presence of 1 μM α-bungarotoxin or 100 μM nicotine or 10 μM MLA (methyllycaconitine).
The incubation is stopped by adding 4 ml of PBS (20 mM Na2HPO4, 5 mM KH2PO4, 150 mM NaCl, pH 7.4, 4° C.) and filtering through type A/E glass fibre filters (Gelman Sciences) which have previously been placed in 0.3% (v/v) polyethyleneimine (PEI) for 3 h. The filters are washed twice with 4 ml of PBS (4° C.), and the bound radioactivity is determined by scintillation measurement. All the assays are carried out in triplicate. The dissociation constant Ki of the test substance is determined from the IC50 of the compounds (concentration of the test substance at which 50% of the ligand bound to the receptor is displaced), the dissociation constant KD and the concentration L of [^3H]-methyllycaconitine using the equation Ki=IC50/(1+L/KD).

SMILES | Ki
O=C(Nc1ccc(-c2ccc(CO)cc2)cc1)[C@@H]1CN2CCC1CC2 [Example 15, (3S)-N-[4′-(Hydroxymethyl)-1,1′-biphenyl-4-yl]-1-azabicyclo[2.2.2]octane-3-carboxamide Hydrochloride] | 39 nM
O=C(Nc1ccc(-c2ccc(CO)c(F)c2)cc1)[C@H]1CN2CCC1CC2 [Example 22, (3R)-N-[4′-(Hydroxymethyl)-3′-fluoro-1,1′-biphenyl-4-yl]-1-azabicyclo[2.2.2]octane-3-carboxamide] | 58 nM
O=C(Nc1ccc(-c2ccc(CO)cc2)cc1)[C@H]1CN2CCC1CC2 [Example 14, (3R)-N-[4′-(Hydroxymethyl)-1,1′-biphenyl-4-yl]-1-azabicyclo[2.2.2]octane-3-carboxamide Hydrochloride] | 20 nM
NC(=O)c1ccc(-c2ccc(NC(=O)[C@H]3CN4CCC3CC4)cc2)cc1 [Example 21, (3R)-N-[4′-(Aminocarbonyl)-1,1′-biphenyl-4-yl]-1-azabicyclo[2.2.2]octane-3-carboxamide Hydrochloride] | 98 nM
CC(C)(O)c1ccc(-c2ccc(NC(=O)[C@H]3CN4CCC3CC4)cc2)cc1 [Example 20, (3R)-N-[4′-(1-Hydroxy-1-methylethyl)-1,1′-biphenyl-4-yl]-1-azabicyclo[2.2.2]octane-3-carboxamide] | 10 nM
O=C(CC1CN2CCC1CC2)Nc1cccc(-c2ccc(CO)cc2)c1 (stereo not shown) [Example 9, 2-(1-Azabicyclo[2.2.2]oct-3-yl)-N-[4′-(hydroxymethyl)-1,1′-biphenyl-3-yl]acetamide Hydrochloride] | 519 nM
CNC(=O)OCc1ccc(-c2ccc(NC(=O)[C@H]3CN4CCC3CC4)cc2)cc1 [Example 23, (4′-{[(3R)-1-Azabicyclo[2.2.2]oct-3-ylcarbonyl]amino}-1,1′-biphenyl-4-yl)methyl Methylcarbamate] | 39 nM

Same assay, conditions: [3H]-methyllycaconitine displacement, rat brain P2 membranes, 21° C., 2.5 h; Ki=IC50/(1+L/KD); read-out: Ki

SMILES | Ki
CC(=O)c1ccc(-c2ccc(NC(=O)CC3CN4CCC3CC4)cc2)cc1 (stereo not shown) [Example 26] | 310 nM
CC(=O)c1ccccc1-c1ccc(NC(=O)CC2CN3CCC2CC3)cc1 (stereo not shown) [Example 31] | 420 nM
CC(C)NC(=O)OCc1ccc(-c2ccc(NC(=O)[C@H]3CN4CCC3CC4)cc2)cc1 [Example 24, (4′-{[(3R)-1-Azabicyclo[2.2.2]oct-3-ylcarbonyl]amino}-1,1′-biphenyl-4-yl)methyl Isopropylcarbamate] | 230 nM
